In brackets after ≈: the same amount, converted by molar mass.
Key:
[1] = system: Mycobacterium tuberculosis H37Rv (ATCC 27294); experiment: Microplate Alamar Blue Assay (MABA): primary screening and MIC determination; format: cell-based; settings: Mycobacterium tuberculosis; retest at lower concentrations in the MABA; read-out: MIC
[2] = system: M. tuberculosis Erdman (ATCC 35801); experiment: 90% and 99% effective concentration in M. tuberculosis infected macrophages; format: cell-based; settings: for EC99 / EC^+99: monolayers of mouse bone marrow macrophages; for EC99: […]% reduction in residual mycobacterial growth after 7 days compared with untreated controls; for EC^+99: reduction in residual mycobacterial growth after 7 days compared with untreated controls

Question: For `COc1ccc(Cn2cnc3c(-c4ccco4)ncnc32)cc1` [Example 33, 6-(2-Furyl)-9-(4-methoxyphenylmethyl)-9H-purine], which melting point is on record?
Answer: The melting point was 175 to 176 °C.

Question: What about the MIC [1] of the same compound?
Answer: The MIC was 1.56 µg/mL (≈ 5.09 µM).

Question: What about the EC90/MIC ([2]; MIC data from Table 1) of the same compound?
Answer: The EC90/MIC was >8.01.

Question: And the EC99 [2]?
Answer: Its EC99 is >12.5 µg/mL.

Question: And the “EC^+99” value [2]?
Answer: The value was >12.5 µg/mL.

Question: Which melting point does the source give for `CSc1ccc(Cn2cnc3c(-c4ccco4)ncnc32)cc1` [Example 42, 6-(2-Furyl)-9-(4-methylthiophenylmethyl)-9H-purine] here?
Answer: The melting point was 157 to 159 °C.

Question: And the MIC [1]?
Answer: The MIC was 6.25 µg/mL (≈ 19.4 µM).

Question: Which results are given for `CN(C)c1ccc(Cn2cnc3c(-c4ccco4)ncnc32)cc1` [Example 43, 9-(4-Dimethylaminophenylmethyl)-6-(2-furyl)-9H-purine]?
Answer: melting point: 158 to 160 °C; MIC [1]: 12.5 µg/mL (≈ 39.1 µM)

Question: What does the source list for `Clc1nc(-c2ccco2)c2ncn(Cc3ccc(Cl)c(Cl)c3)c2n1` [Example 47, 2-Chloro-9-(3,4-dichlorophenylmethyl)-6-(2-furyl)-9H-purine]?
Answer: melting point: 191 to 193 °C; MIC [1]: 6.25 µg/mL (≈ 16.5 µM)

Question: For `Clc1cccc(Cn2cnc3c(-c4ccco4)nc(Cl)nc32)c1` [Example 48, 2-Chloro-9-(3-chlorophenylmethyl)-6-(2-furyl)-9H-purine], which melting point is on record?
Answer: Its melting point is 196 to 198 °C.

Question: What about the MIC [1] of the same compound?
Answer: Its MIC is 3.13 µg/mL (≈ 9.07 µM).

Question: With `Fc1ccc(Cn2cnc3c(-c4ccco4)nc(Cl)nc32)cc1` [Example 49, 2-Chloro-9-(4-fluorophenylmethyl)-6-(2-furyl)-9H-purine] as the compound, how does the melting point read?
Answer: The melting point was 152 to 155 °C.

Question: And the MIC [1]?
Answer: The MIC was 3.13 µg/mL (≈ 9.52 µM).

Question: For `COc1ccc(Cn2cnc3c(-c4ccco4)nc(Cl)nc32)cc1` [Example 51, 2-Chloro-6-(2-furyl)-9-(4-methoxyphenylmethyl)-9H-purine], which MIC [1] is on record?
Answer: The MIC was 0.39 µg/mL (≈ 1.14 µM).

Question: And the EC99 [2]?
Answer: Its EC99 is 0.67 µg/mL.

Question: What about the “EC^+99” value [2] of the same compound?
Answer: Its value is 0.02 µg/mL.

Question: What does the source list for `COc1cccc(Cn2cnc3c(-c4ccco4)nc(Cl)nc32)c1` [Example 52, 2-Chloro-6-(2-furyl)-9-(3-methoxyphenylmethyl)-9H-purine]?
Answer: melting point: 160 to 161 °C; MIC [1]: 3.13 µg/mL (≈ 9.19 µM)

Question: Which melting point does the source give for `COc1ccc(Cn2cnc3c(-c4ccco4)nc(Cl)nc32)cc1C` [Example 53, 2-Chloro-6-(2-furyl)-9-(4-methoxy-3-methylphenylmethyl)-9H-purine] here?
Answer: Its melting point is 177 to 179 °C.

Question: And the MIC [1]?
Answer: The MIC was 0.78 µg/mL (≈ 2.2 µM).

Question: What does the source list for `COc1ccc(Cn2cnc3c(-c4ccc(OC)cc4)nc(Cl)nc32)cc1` [Example 54, 2-Chloro-6-(4-methoxyphenyl)-9-(4-methoxyphenylmethyl)-9H-purine]?
Answer: melting point: 152 to 154 °C; MIC [1]: 1.56 µg/mL (≈ 4.1 µM)

Question: For `COC(c1ccccc1)n1cnc2c(-c3cccs3)nc(Cl)nc21` (stereo not drawn) [Example 55, 2-Chloro-9-(methoxyphenylmethyl)-6-(2-thienyl)-9H-purine], which melting point is on record?
Answer: Its melting point is 183 to 185 °C.

Question: And the MIC [1]?
Answer: The MIC was 0.78 µg/mL (≈ 2.19 µM).

Question: Which melting point does the source give for `COc1ccc(Cn2cnc3c(-c4ccco4)nc(SC)nc32)cc1` [Example 68, 6-(2-Furyl)-9-(4-methoxyphenylmethyl)-2-methylthio-9H-purine] here?
Answer: The melting point was 147 to 148 °C.

Question: What about the MIC [1] of the same compound?
Answer: Its MIC is 0.78 µg/mL (≈ 2.21 µM).

Question: Which results are given for `COc1ccc(Cn2ccc3c(-c4ccco4)ncnc32)cc1` [Example 109, 4-(2-Furyl)-7-(4-methoxybenzyl)-7H-pyrrolo[2,3-d]pyrimidine]?
Answer: melting point: 130 to 131 °C; MIC [1]: 0.39 µg/mL (≈ 1.28 µM)
